Assay results as given in patent US11040981B2, “Pyrrolotriazine compounds and methods of inhibiting TAM kinases” (Syros Pharmaceuticals, Inc., priority 2017, dated 2021).
pIC50: −log10 of the molar value.

Key:
FLT3 = target: T1, FLT3 (Homo sapiens, UniProt P36888); experiment: TR-FRET kinase activity assay, FLT3; type: biochemical; conditions: ATP at Km, 60 minutes
T1 sequence (P36888 27-993): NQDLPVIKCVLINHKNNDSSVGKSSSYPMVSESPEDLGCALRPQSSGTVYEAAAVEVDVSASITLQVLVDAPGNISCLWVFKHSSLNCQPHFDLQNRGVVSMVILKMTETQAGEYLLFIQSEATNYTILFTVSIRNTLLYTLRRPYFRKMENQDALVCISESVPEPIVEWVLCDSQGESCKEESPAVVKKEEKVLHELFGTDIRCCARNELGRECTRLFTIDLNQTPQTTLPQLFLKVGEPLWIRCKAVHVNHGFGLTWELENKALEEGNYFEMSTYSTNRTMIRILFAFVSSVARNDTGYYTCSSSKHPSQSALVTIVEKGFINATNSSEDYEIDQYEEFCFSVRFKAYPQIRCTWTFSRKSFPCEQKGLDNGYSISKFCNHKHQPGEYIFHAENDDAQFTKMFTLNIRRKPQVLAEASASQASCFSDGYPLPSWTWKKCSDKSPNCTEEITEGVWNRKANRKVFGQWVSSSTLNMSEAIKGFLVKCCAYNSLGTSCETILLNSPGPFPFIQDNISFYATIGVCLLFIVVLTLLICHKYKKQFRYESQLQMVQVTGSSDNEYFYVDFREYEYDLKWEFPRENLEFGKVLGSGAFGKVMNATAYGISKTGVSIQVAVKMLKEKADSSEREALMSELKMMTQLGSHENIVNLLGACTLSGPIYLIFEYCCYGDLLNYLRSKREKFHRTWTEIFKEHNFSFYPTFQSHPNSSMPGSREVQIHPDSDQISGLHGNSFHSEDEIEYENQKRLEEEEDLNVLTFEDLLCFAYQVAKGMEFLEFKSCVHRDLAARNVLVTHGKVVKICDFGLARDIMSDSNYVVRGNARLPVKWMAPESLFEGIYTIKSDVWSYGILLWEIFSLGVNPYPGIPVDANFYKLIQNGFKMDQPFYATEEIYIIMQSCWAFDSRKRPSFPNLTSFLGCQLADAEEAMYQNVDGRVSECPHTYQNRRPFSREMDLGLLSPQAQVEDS
Outline: (§1)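 Enzyme + labelled peptide + cpd premixed; ATP at per-enzyme Km starts rxn. 60 min RT, HEPES pH 7.5/MgCl2/EGTA/Brij 35/DTT buffer. Stop 12.5 mM EDTA, Eu phospho-Ab 30 min dark, TR-FRET read → IC50.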

MERTK = target: T2, MERTK (Homo sapiens, UniProt Q12866); experiment: TR-FRET kinase activity assay, MERTK; type: biochemical; conditions: for pIC50: TR-FRET activity assay, ATP at Km, 60 minutes, read-out: Mer IC50
T2 sequence (Q12866 21-999): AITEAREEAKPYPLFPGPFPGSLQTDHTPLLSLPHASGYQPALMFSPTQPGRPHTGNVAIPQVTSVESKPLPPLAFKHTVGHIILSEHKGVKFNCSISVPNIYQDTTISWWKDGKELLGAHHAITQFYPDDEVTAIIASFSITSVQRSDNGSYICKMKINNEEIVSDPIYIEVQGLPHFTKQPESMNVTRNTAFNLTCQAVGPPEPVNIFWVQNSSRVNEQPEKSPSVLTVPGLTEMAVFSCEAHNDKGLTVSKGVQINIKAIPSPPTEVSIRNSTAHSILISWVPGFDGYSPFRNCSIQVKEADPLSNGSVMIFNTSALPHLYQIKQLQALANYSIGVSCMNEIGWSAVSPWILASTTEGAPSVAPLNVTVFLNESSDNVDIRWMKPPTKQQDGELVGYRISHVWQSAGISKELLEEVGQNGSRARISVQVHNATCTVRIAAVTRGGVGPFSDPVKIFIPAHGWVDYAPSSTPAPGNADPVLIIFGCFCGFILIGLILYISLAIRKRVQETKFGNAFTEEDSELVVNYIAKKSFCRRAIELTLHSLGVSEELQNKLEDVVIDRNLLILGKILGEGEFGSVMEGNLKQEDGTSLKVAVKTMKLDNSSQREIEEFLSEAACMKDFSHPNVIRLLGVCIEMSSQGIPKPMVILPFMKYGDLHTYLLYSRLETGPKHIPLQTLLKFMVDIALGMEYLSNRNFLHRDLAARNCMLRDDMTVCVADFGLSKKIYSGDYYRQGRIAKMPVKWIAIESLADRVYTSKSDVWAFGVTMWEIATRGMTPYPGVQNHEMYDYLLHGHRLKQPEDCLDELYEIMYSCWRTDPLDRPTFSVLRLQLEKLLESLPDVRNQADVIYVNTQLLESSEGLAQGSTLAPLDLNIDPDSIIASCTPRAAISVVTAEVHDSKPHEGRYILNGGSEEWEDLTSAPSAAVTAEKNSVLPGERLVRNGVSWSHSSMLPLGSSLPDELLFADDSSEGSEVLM
Outline: as §1

[1] = ratio calculated as FLT3 IC50/Mer IC50
[2] = ratio of Mer to FLT3: FLT3 IC50/Mer IC50

SMILES	pIC50 (FLT3)	pIC50 (MERTK)	FLT3/Mer ratio (FLT3 IC50/Mer IC50) (MERTK; [1])	FLT3/Mer ratio (FLT3 IC50/Mer IC50) (MERTK; [2])
COC[C@H](C)Nc1ncc2c([C@H]3CC[C@@H](C(=O)N4CCC(F)(F)CC4)CC3)cc([C@H]3CC[C@H](O)CC3)n2n1 [Compound 577]	5.00 to 6.00	≥ 7.00	+++ (“+++” represents a ratio of >100)	–
COC[C@H](C)Nc1ncc2c(-c3ccnc(N4CCOCC4)c3)cc([C@H]3CC[C@](C)(O)CC3)n2n1 [Compound 549]	6.00 to 7.00	≥ 7.00	+++ (“+++” represents a ratio of >100)	–
C[C@@H](CC(F)(F)F)Nc1ncc2c(-c3ccnc([S@@](C)(=N)=O)c3)cc([C@H]3CC[C@H](O)CC3)n2n1 [Compound 581]	≥ 7.00	≥ 7.00	+++ (“+++” represents a ratio of >100)	–
COC[C@H](C)Nc1ncc2c(-c3cnn(C(C)(C)C(=O)N4CCCC5(COC5)C4)c3)cc([C@H]3CC[C@H](O)CC3)n2n1 [Compound 516]	5.00 to 6.00	≥ 7.00	+++ (“+++” represents a ratio of >100)	–
COCC(C)Nc1ncc2c(-c3cccc(-c4nnc(C)o4)c3)cc(C3CCC(O)CC3)n2n1 (stereo not drawn) [Compound 551]	5.00 to 6.00	≥ 7.00	+++ (“+++” represents a ratio of >100)	–
COC[C@H](C)Nc1ncc2c(-c3cnn(C(C)(C)C(=O)N4C[C@@H](C)N[C@@H](C)C4)c3)cc([C@H]3CC[C@@H](O)CC3)n2n1 [Compound 591]	5.00 to 6.00	≥ 7.00	+++ (“+++” represents a ratio of >100)	–
COCC(C)Nc1ncc2c(-c3ccc(CN4CCCC4)cc3)cc(C3CCC(O)CC3)n2n1 (stereo not drawn) [Compound 142]	6.00 to 7.00	≥ 7.00	–	+++ (“+++” represents a ratio of >100)
CCOCC(C)Nc1ncc2c(-c3ccc(CN4CCN(C)CC4)cc3)cc(C3CCC(O)CC3)n2n1 (stereo not drawn) [Compound 138]	6.00 to 7.00	≥ 7.00	–	++ (“++” represents a ratio of between 10 and 100)
COC[C@H](C)Nc1ncc2c(-c3cnn(C4COC4)c3)cc([C@@H]3CC[C@@H](O)C(C)(C)C3)n2n1 [Compound 570]	6.00 to 7.00	≥ 7.00	++ (“++” represents a ratio of between 10 and 100)	–
COC[C@H](C)Nc1ncc2c(-c3ccnc(N4CCOC(C(C)(C)O)C4)c3)cc([C@H]3CC[C@H](O)CC3)n2n1 (stereo partly drawn) [Compound 534]	6.00 to 7.00	≥ 7.00	+++ (“+++” represents a ratio of >100)	–
COC[C@H](C)Nc1ncc2c(-c3ccc([S@](C)(=N)=O)nc3)cc([C@H]3CC[C@H](O)CC3)n2n1 [Compound 532]	5.00 to 6.00	≥ 7.00	+++ (“+++” represents a ratio of >100)	–
COC[C@H](C)Nc1ncc2c(-c3ccnc([S@](C)(=N)=O)c3)cc([C@H]3CC[C@H](O)CC3)n2n1 [Compound 575]	5.00 to 6.00	≥ 7.00	+++ (“+++” represents a ratio of >100)	–
COC[C@H](C)Nc1ncc2c(-c3cnn(C(C)(C)C(=O)N4CCOC(C(C)(C)O)C4)c3)cc([C@H]3CC[C@H](O)CC3)n2n1 (stereo partly drawn) [Compound 556]	5.00 to 6.00	≥ 7.00	+++ (“+++” represents a ratio of >100)	–
COC[C@H](C)Nc1ncc2c(C3=CCOCC3)cc([C@H]3CC[C@H](O)CC3)n2n1 [Compound 141]	6.00 to 7.00	≥ 7.00	–	+++ (“+++” represents a ratio of >100)
COC[C@H](C)Nc1ncc2c(-c3cnn(C4COC4)c3)cc([C@@H]3CC[C@H](O)C(C)(C)C3)n2n1 [Compound 571]	6.00 to 7.00	≥ 7.00	++ (“++” represents a ratio of between 10 and 100)	–
COCC(C)Nc1ncc2c(-c3ccc4ocnc4c3)cc(C3CCC(O)CC3)n2n1 (stereo not drawn) [Compound 550]	6.00 to 7.00	≥ 7.00	+++ (“+++” represents a ratio of >100)	–
CC[C@]1(O)CC[C@H](c2cc(-c3ccnc(N4CCOCC4)c3)c3cnc(N[C@@H](C)COC)nn32)CC1 [Compound 568]	6.00 to 7.00	≥ 7.00	+++ (“+++” represents a ratio of >100)	–
COC[C@H](C)Nc1ncc2c(-c3cnn(C4COC4)c3)cc(C3CCC(F)(F)CC3)n2n1 [Compound 515]	6.00 to 7.00	≥ 7.00	+++ (“+++” represents a ratio of >100)	–
COCC(C)Nc1ncc2c(-c3ccc4cc[nH]c4c3)cc(C3CCC(O)CC3)n2n1 (stereo not drawn) [Compound 538]	5.00 to 6.00	≥ 7.00	+++ (“+++” represents a ratio of >100)	–
COC[C@H](C)Nc1ncc2c(-c3cnn(C4COC4)c3)cc(-c3cccc(O)c3)n2n1 [Compound 511]	6.00 to 7.00	≥ 7.00	++ (“++” represents a ratio of between 10 and 100)	–
C[C@@H](CC(F)(F)F)Nc1ncc2c(-c3ccnc([S@](C)(=N)=O)c3)cc([C@H]3CC[C@H](O)CC3)n2n1 [Compound 580]	≥ 7.00	≥ 7.00	+++ (“+++” represents a ratio of >100)	–
C[C@@H](Nc1ncc2c(-c3cnn(C4COC4)c3)cc([C@H]3CC[C@H](O)CC3)n2n1)C(F)(F)F [Compound 527]	6.00 to 7.00	≥ 7.00	+++ (“+++” represents a ratio of >100)	–
COC[C@H](C)Nc1ncc2c(-c3cnn(C(C)(C)C(=O)N4CCO[C@@H](C(C)(C)O)C4)c3)cc([C@H]3CC[C@H](O)CC3)n2n1 [Compound 585]	5.00 to 6.00	≥ 7.00	+++ (“+++” represents a ratio of >100)	–
COC[C@H](C)Nc1ncc2c(-c3cnn(C(C)(C)C(=O)N4CCOCC4)c3)cc([C@H]3CC[C@@](C)(O)CC3)n2n1 [Compound 561]	6.00 to 7.00	≥ 7.00	+++ (“+++” represents a ratio of >100)	–
COC[C@H](C)Nc1ncc2c(-c3cnn(C(C)(C)C(=O)N4CCOC(C(C)(C)O)C4)c3)cc([C@H]3CC[C@H](O)CC3)n2n1 (stereo partly drawn) [Compound 586]	5.00 to 6.00	≥ 7.00	+++ (“+++” represents a ratio of >100)	–
COC[C@H](C)Nc1ncc2c(-c3ccnc(N4CCc5cnn(C)c5C4)c3)cc([C@H]3CC[C@H](O)CC3)n2n1 [Compound 518]	5.00 to 6.00	≥ 7.00	+++ (“+++” represents a ratio of >100)	–
C[C@@H](COC(F)F)Nc1ncc2c(-c3cnn(C(C)(C)C(=O)N4CCN(C)CC4)c3)cc([C@H]3CC[C@H](O)CC3)n2n1 [Compound 593]	6.00 to 7.00	≥ 7.00	+++ (“+++” represents a ratio of >100)	–
